Laboratory results: patent US20190315775A1, “MODIFIED […] AND PHARMACEUTICAL COMPOSITION HAVING SAME AS ACTIVE INGREDIENT” (KEIO UNIVERSITY, priority 2016, published 2019)

Tests used:
[1] = system: HT-29 (human colon adenocarcinoma cells); test: WST-1 proliferation assay (Example 10), HT-29; format: cell-based; details: WST-1, 48 hours
Protocol: Cancer cells used herein were KMS34 (human myeloma cells), HeLa (human cervical cancer cells), HCT116 (human colon cancer cells; p53+/+), KATOIII (human stomach cancer cells), MDA-MB-231 (human breast cancer cells), HT-29 (human colon adenocarcinoma cells), PANC-1 (human pancreatic cancer cells), and Li-7 (human liver cancer cells). Proliferation assay of various cancer cells was performed by the WST-1 method (Cook, J A. & Mitchell, J B., Anal. Biochem., 179, 1-7, 1984) as follows. One μ1 each of PEG11(E)-TC11 and PEG11(O)-TC11 prepared in advance at target concentrations was added into each well of a 96-well microplate. Medium was added to the wells at 50 μl per well, and then mixed by tapping lightly the plate. Subsequently, KMS34 was prepared at a concentration of 5×10^5 cells/ml, and cells other than KMS34 were prepared at a concentration of 2×10^5 cells/ml. Cells were seeded at 50 μl per well (2.5×10^4 cells, 1×10^4 cells), and then incubated in a CO2 incubator (37° C., 5% CO2) for 48 hours. […] Subsequently, the plate was shaken with a plate reader for 1 minute, and then absorbance was measured at 450 nm. At this time, absorbance was also measured at 595 nm as a reference wavelength. The net absorbance was obtained by subtracting the absorbance at the reference wavelength from the absorbance at 450 nm.

[2] = Mouse blood kinetics upon single intraperitoneal administration; format: in vivo; details: male, ICR, plasma, ip, mice, single intraperitoneal TC11 60 mg/kg BW
Protocol: First, PEG11(E)-TC11(A) and PEG11(O)-TC11(B) were examined for stability in mouse blood. To 5-week-old male ICR mice (CLEA Japan, Tokyo, Japan), PEG11(E)-TC11 and PEG11(O)-TC11 were administered intraperitoneally at 59.1 mg/kg BW and 54.6 mg/kg BW, respectively, in such a manner that each molar concentration was equivalent to that of 20 mg/kg BW of TC11. At 0, 0.5, 1, 1.5, 4, 8, 12, and 24 hours later, a tail vein was punctured with a 26G needle for bleeding, and then about 100 μL of blood was collected using a heparinized hematocrit capillary tube (Terumo, Tokyo, Japan). After blood collection, blood was transferred into a 0.5-mL tube, and then subjected to centrifugation at 4° C. and 3,400 G for 15 minutes. Subsequently, the supernatant was collected, and then cryopreserved at −80° C. A quality control serum, Consera (registered trademark) (Nissui pharmaceutical, Tokyo, Japan) was dissolved in 3 mL of distilled water (dH2O) per bottle. After left to stand for 30 minutes, bottles were turned upside-down (mixing by inversion) and then used. Consera (190 μL) was mixed with the collected blood plasma and 10 μL of urine, thereby preparing samples. Moreover, PEG11(E)-TC11 and HOEtO-TC11 were each diluted with dH2O in such a manner that the concentrations were 0, 2, 4, 6, 8, and 10 μM, and then 10 μL of the solution at each concentration and 190 μL of Consera were mixed, thereby preparing a calibration curve sample. […]
HPLC analysis was conducted using Inertsil (registered trademark) ODS-3 […]×Φ4.6 mm as a stationary phase, CH3CN:dH2O=50:50 as a mobile phase, a flow rate of 0.70 mL/min, a UV detection wavelength of 267 nm, and an excitation wavelength of 380 nm, a fluorescence wavelength of 530 nm, and an injection amount of 10 μL at a column temperature of 25° C.
PEG11(E)-TC11 was examined. […] Note that as described in Example 7, since PEG11(E)-TC11 is quickly hydrolyzed by esterase in blood and then converted to HOEtO-TC11, the blood HOEtO-TC11 level was measured.

[3] = system: KMS21 high-risk MM cell line; test: WST-1 cell proliferation inhibition (Example 8), KMS21; format: cell-based; details: Homo sapiens, WST-1, 48 hours, read-out: IC50, cell proliferation inhibitory activity, KMS21
Protocol: (§1) Similar to Example 7, high-risk MM cell lines were treated with drugs, TC11 and PEG5(E)-TC11 at arbitrary concentrations. […] Specifically, each high-risk MM cell line was prepared at 5×10^5 cells/ml, and then seeded at 50 μl per well (2.5×10^4 cells). Drugs such as TC11, and PEG5(E)-TC11 were added to wells at arbitrary concentrations. WST-1 reagent was added at 48 hours after addition of drugs. After 1 hour of reaction at 37° C. in a CO2 incubator, absorbance was measured at a wavelength of 450 nm using a microplate reader. Cell viability was found from an absorbance ratio using absorbance at 0 μM designated as 100%. IC50 was calculated from a semi-logarithmic chart using Microsoft (registered trademark) Excel.

[4] = system: KMS11 high-risk MM cell line; test: WST-1 cell proliferation inhibition (Example 8), KMS11; format: cell-based; details: Homo sapiens, KMS-11, WST-1, 48 hours, read-out: IC50, cell proliferation inhibitory activity, KMS11
Protocol: as §1

IC50 [1] | Cmax ([2]; read-out: Cmax, highest blood level) | half-life ([2]; read-out: t1/2, serum half-life (converted)) | Tmax ([2]; read-out: tmax, time at which the blood level reached the highest level) | SMILES | IC50 [3] | IC50 [4]
20.5 µM |  |  |  | COCCOCCOCCOCCOCCOCCOCCOCCOCCOCCOCCOCCC(=O)OCCOc1cc2c(cc1N)C(=O)N(c1c(C(C)C)cccc1C(C)C)C2=O [PEG11(E)-TC11] |  | 
11.4 µM |  |  |  | COCCOCCOCCOCCOCCOCCOCCOCCOCCOCCOCCOCCOc1cc2c(cc1N)C(=O)N(c1c(C(C)C)cccc1C(C)C)C2=O [PEG11(O)-TC11] |  | 
 | 2600 nM | 1.4 h | 1.5 h | CC(C)c1cccc(C(C)C)c1N1C(=O)c2ccc(N)cc2C1=O [TC11, 2-(2,6-di-isopropylphenyl)-5-amino-1H-isoindole-1,3-dione, reference compound] | 1.6 µM | 3.2 µM
